The subject of data set [1] is db/db mice. As to the kind of experiment: Activity of decreasing blood sugar using db/db mice. The format is in vivo. The following applies: female db/db mice, 1 mg/kg, compound mixed with powdered chow, 14 days; difference between db/db and +/+ mouse defined as 100%. The text has this:
<Activity of Decreasing Blood Sugar Using db/db Mice>
• 1-(2-Chloro-4-(n-pentyloxy)benzyl)-2-methyl-6-((4-methylbenzene)sulfonylcarbamoyl)benzimidazole—Compound(15) • 6-((N-1-butylaminosulfonyl)carbamoyl)-1-(2-chloro-4-phenylbenzyl)-2-methylbenzimidazole—Compound(76) Animal Used
Five-week-old female mice [C57BL/KsJ-dbm db+/db+, C57BL/KsJ-dbm +m/+m (Jackson Laboratory)] were purchased, and were kept for 2 to 3 weeks. Then, these mice were used in the test.
A test compound was mixed with a powdered chow (CE-2, made by Nippon Clea) using a mortar. The mixing ratio was 0.01%. The mixed chow was changed twice a week for each group. The feed amount and the remaining amount were recorded, and the intake was calculated from the difference therebetween.
The female db/db mice were grouped according to the body weight, the plasma glucose, and the plasma triglyceride concentrations. Then, the mixture containing the test compound was administered to the mice for 14 days (from 8 to 10 weeks old). In the morning on day 7 and day 14, blood was collected from the orbital venous plexus using heparinized glass capillary tubes (Chase Heparinized Capillary Tubes), and a plasma fraction was obtained through centrifugal separation. Plasma glucose, triglyceride, and insulin concentrations were measured on day 0 and day 14. Plasma glucose and triglyceride concentrations were measured on day 7. The body weight was measured on day 0, day 7, and day 14. After the final collection of the blood, the mice were killed using CO2 gas.
The plasma glucose was measured by a glucose oxidase method (Glucose CII-Test Wako made by Wako Pure Chemical Industries, Ltd.) using from 10 to 15 μl of plasma. The plasma triglyceride concentration was measured by a GPO-p-chlorophenol method (Triglyceride G-Test Wako made by Wako Pure Chemical Industries, Ltd.) or a GPO-DAOS method (Triglyceride E-Test Wako) using from 10 to 15 μl of plasma. The above-mentioned measurements were conducted immediately after the blood collection. The plasma insulin concentration was measured by radioimmunoassay method (Phadesef Insulin RIA Kit made by Cabi Pharmacia) using 20 μl of plasma (which can be stored at −20° C.).
The difference in the plasma glucose and the plasma triglyceride concentrations between the db/db mouse and the +/+ mouse was defined as 100%, and the rate (%) of decrease in the plasma glucose and the plasma triglyceride concentrations of the group to which the test compound was administered was calculated. […]

Structures are written as SMILES.

What is called melting point is the temperature, or range, at which the solid turns liquid.

The molecule `CCCNS(=O)(=O)NC(=O)c1ccc2nc(C)n(Cc3ccc(-c4ccco4)cc3Cl)c2c1` [Compound (92), 1-(2-chloro-4-(2-furyl)benzyl)-2-methyl-6-((N-1-propylaminosulfonyl)carbamoyl)benzimidazole] yielded a melting point of 177.8 to 180.2 °C.
On the same count and under the same terms, with `CCCCCOc1ccc(Cn2c(C)nc3ccc(C(=O)NS(=O)(=O)NCCC)cc32)c(Cl)c1` [Compound (89), 1-(2-chloro-4-(pentyloxy)benzyl)-2-methyl-6-((N-1-propylaminosulfonyl)carbamoyl)benzimidazole] the figure was 176.4 to 179.1 °C.
In the case of `CCCCC#Cc1ccc(Cn2c(C)nc3ccc(C(=O)NS(=O)(=O)CCCCC)cc32)c(Cl)c1` [Compound (44), 1-(2-chloro-4-(1-hexyn-1-yl)benzyl)-2-methyl-6-(1-pentanesulfonylcarbamoyl)benzimidazole], the melting point was in the range of 190 to 191 °C.
For `CCCNS(=O)(=O)NC(=O)c1ccc2nc(C)n(Cc3ccc(C(F)(F)F)cc3Cl)c2c1` [Compound (74), 1-(2-chloro-4-(trifluoromethyl)benzyl)-2-methyl-6-((N-1-propylaminosulfonyl)carbamoyl)benzimidazole], the melting point was 202 to 203 °C.
On the same count and under the same terms, with `CCNS(=O)(=O)NC(=O)c1ccc2nc(C)n(Cc3ccc(-c4ccco4)cc3Cl)c2c1` [Compound (91), 1-(2-chloro-4-(2-furyl)benzyl)-6-((N-ethylaminosulfonyl)carbamoyl)-2-methylbenzimidazole] the figure was 190.5 to 192.2 °C.
On to `CCCCCOc1ccc(Cn2c(C)nc3ccc(C(=O)NS(=O)(=O)c4ccc(C)cc4)cc32)c(Cl)c1` [Compound (15), 1-(2-chloro-4-(n-pentyloxy)benzyl)-2-methyl-6-((4-methylbenzene)sulfonylcarbamoyl)benzimidazole], for which, in data set [1], the “rate of decrease in the plasma glucose” value stood at 79% and the “rate of decrease in the plasma triglyceride” value worked out at 69%.
As for `CCCNS(=O)(=O)NC(=O)c1ccc2nc(C)n(Cc3ccc(OCC)cc3Cl)c2c1` [Compound (86), 1-(2-chloro-4-(ethyloxy)benzyl)-2-methyl-6-((N-1-propylaminosulfonyl)carbamoyl)benzimidazole], the melting point was in the range of 175.3 to 176.2 °C.
Regarding `CCCCNS(=O)(=O)NC(=O)c1ccc2nc(C)n(Cc3ccc(-c4ccccc4)cc3Cl)c2c1` [Compound (76), 6-((N-1-butylaminosulfonyl)carbamoyl)-1-(2-chloro-4-phenylbenzyl)-2-methylbenzimidazole], in data set [1], the “rate of decrease in the plasma glucose” value is listed as 71% and the “rate of decrease in the plasma triglyceride” value is given as 98%.
`CCCCCS(=O)(=O)NC(=O)c1ccc2nc(C)n(Cc3ccc(N4CCOCC4)cc3Cl)c2c1` [Compound (71), 1-(2-chloro-4-morpholinobenzyl)-2-methyl-6-(1-pentanesulfonylcarbamoyl)benzimidazole] had a melting point of 205 to 207 °C.

(Values after patent US6869950B1, “Benzimidazole derivatives” (Fujisawa Pharmaceutical Co., Ltd., priority 1998, dated 2005).)
